Where “and” joins values, the source holds several entries; their conditions need not be identical. Identical values can stand only once.
Tests used:
[1] = test system: monkey primary hepatocytes; assay: Metabolic disposition of [^14C]-Compound 1 and [^14C]-2′-C-methyl guanosine in monkey primary hepatocytes (incubation medium, cellular extracts, nucleotide levels); type: in vitro ADME, Cynomolgus monkey; conditions: for AUC (area under the concentration-time curve) of Compound 7 levels: 0-24 h
Description: (§1) Primary hepatocytes: Freshly isolated cells from animal and human liver were obtained in suspension on ice. Cells were pelleted by centrifugation at 70-75×g (rat) or 95-90×g (monkey and human) and resuspended at 0.8 million cells per mL of platting medium (William's E supplemented with 5% FBS, 0.5% penicillin-streptomycin, 1% L-glutamine, 4 μg/mL insulin and 1 μM dexamethasone). Multi-well collagen I-coated plates (rat tail collagen type I; 12- or 6-well) were then seeded by addition of 1 mL (12-well; 0.8 million cells/well) or 2 mL (6-well; 1.6 million cells/well) of cell suspension. The plates were gently shaken to evenly distribute the cells and placed in an incubator at 37° C. for approximately 4 to 6 hours to allow cells to attach. Once cells were attached, the platting medium was removed and replaced with hepatocyte culture medium (William's E supplemented with penicillin-streptomycin, 1% L-glutamine, 1% insulin-transferrin-selenium and 0.1 μM dexamethasone). Cells were left overnight in an incubator at 37° C. to acclimatize to culture and the medium.
(§2) Hepatocyte incubations with radiolabeled Compound 1 and 2′-C-methyl guanosine, both labeled in the C-8 position of the guanine moiety, were conducted at a final volume of 2.0 mL hepatocyte culture medium/well ([…]). Culture medium from overnight incubation of cells was removed and replaced with fresh medium, pre-warmed to 37° C., containing 1 or 10 μM [^14C]-Compound 1 ([…]) or [^14C]-2′-C-methyl guanosine (127 DPM/μmol) from a stock solution in DMSO (final DMSO concentration was 0.1%) or 50% ethanol (final ethanol concentration was 0.2%). After 1, 4, 8 and 24 hours, 0.5-1.0 mL of incubation medium was removed and stored at −20° C. until analysis (described below). The remaining medium was discarded and cell monolayers were carefully washed two times with ice-cold PBS. Following the last wash, all PBS was carefully removed and 1.0 mL of extraction solution (ice-cold 70% methanol) added. Cells were scrapped off and suspended in the extraction solution, transferred to 2 mL polypropylene microfuge tubes and intracellular contents extracted overnight at −20° C.
(§3) Preliminary identification of putative metabolites was conducted by comparing the retention time of observed metabolites in incubation medium and cellular extracts with retention times obtained with chemically synthesized standards using the chromatography conditions described below. Further identification of 2′-C-methyl guanosine nucleotides (mono-, di- and triphosphate) was carried out by incubating cellular extract samples with alkaline phosphatase (10 units for 60 min at 37° C.) and comparing the HPLC retention times of the resulting nucleosides with that of authentic 2′-C-methyl guanosine.
(§4) Cellular extracts were prepared by centrifugation at 16,000 RCF using an Eppendorf microcentrifuge (Eppendorf, Model 5415D) for 10 min to remove cellular debris. An aliquot of 5-10 μL of the supernatant was added to 5 mL of EcoLite™ (MP, Irvine, Calif.) liquid scintillation cocktail and radioactivity measured by liquid scintillation counting (LSC) using a Beckman Coulter LS6500 multipurpose liquid scintillation counter (Beckman Instruments, Fullerton, Calif.). The remaining sample was then dried using a Labconco refrigerated centrivap concentrator (Labconco, Kansas City, Mo.). Dry extracts were reconstituted in 120 μL of HPLC-grade water and centrifuged at 16,000 RCF using an Eppendorf microcentrifuge for 10 min. Prior to HPLC analysis (described below), radioactivity of the concentrated extracts was measured by LSC using 5 μL aliquots. Extraction recovery was then determined by comparing total radioactivity in extracts before and after drying. The remaining extract was then analyzed by HPLC with online radioactivity detection using a Flow Scintillation Analyzer Radiomatic™ 515TR. Radioactivity in the separated components was quantified by integrating the peaks using Flo-One™ Software (Perkin Elmer Life Sciences). […]

rat primary hepatocytes = assay: Metabolic disposition of [^14C]-Compound 1 and [^14C]-2′-C-methyl guanosine in rat primary hepatocytes (incubation medium, cellular extracts, nucleotide levels); type: in vitro ADME, Sprague Dawley rat
Description: as §1, §2, §3, §4

[2] = monkey hepatocytes (Cy234), 10 μM [^14C]-Compound 1, 4 h
[3] = monkey hepatocytes Cy230, 10 μM [^14C]-2′-C-methyl guanosine, 1 h
[4] = monkey hepatocytes Cy230, 10 μM [^14C]-2′-C-methyl guanosine, 8 h
[5] = monkey hepatocytes Cy230, 10 μM [^14C]-2′-C-methyl guanosine, 24 h
[6] = monkey hepatocytes Cy234, 10 μM [^14C]-2′-C-methyl guanosine, 1 h
[7] = monkey hepatocytes Cy234, 10 μM [^14C]-2′-C-methyl guanosine, 4 h
[8] = monkey hepatocytes Cy234, 10 μM [^14C]-2′-C-methyl guanosine, 8 h
[9] = monkey hepatocytes Cy234, 10 μM [^14C]-2′-C-methyl guanosine, 24 h
[10] = rat hepatocytes (Rs458), 1 μM [^14C]-Compound 1, 1 h
[11] = rat hepatocytes (Rs458), 1 μM [^14C]-Compound 1, 8 h

C[C@@]1(O)[C@H](O)[C@@H](COP(=O)(O)OP(=O)(O)OP(=O)(O)O)O[C@H]1n1cnc2c(=O)[nH]c(N)nc21 [Compound 7, [(2R)-2-methyl-β-D-ribofuranosyl]guanine 5′-triphosphate] was tested, and the “metabolites observed in cellular extracts (% of total radioactivity)” value ([1]; monkey hepatocytes (Cy230, Cy234), 10 μM [^14C]-Compound 1, 1 h) was 63.4% and 34.9%, the “metabolites observed in cellular extracts (% of total radioactivity)” value ([1]; monkey hepatocytes (Cy230, Cy234), 10 μM [^14C]-Compound 1, 8 h) was 80.9% and 77.6% and the “metabolites observed in cellular extracts (% of total radioactivity)” value ([1]; monkey hepatocytes (Cy230, Cy234), 10 μM [^14C]-Compound 1, 24 h) was 72.2% and 79.4%. The “2′-C-methyl guanosine nucleotide levels in cellular extracts” value (“2′-C-methyl guanosine nucleotide levels” below) [1, 2] was 183 pmol/million cells, the “metabolites observed in cellular extracts (% of total radioactivity)” value [1, 2] was 70.3% and the “2′-C-methyl guanosine nucleotide levels” value ([1]; monkey hepatocytes Cy230, 10 μM [^14C]-2′-C-methyl guanosine, 0 h) was 0 pmol/million cells. The “AUC (area under the concentration-time curve) of Compound 7 levels” value (“AUC … of Compound 7 levels” for short) ([1]; monkey hepatocytes Cy230, 10 μM [^14C]-2′-C-methyl guanosine) was 241 pmol * hr/million cells, the “2′-C-methyl guanosine nucleotide levels” value [1, 3] was 2.87 pmol/million cells and the “Major metabolites observed in cellular extracts (% of total radioactivity)” value [1, 3] was 3.63 % of total radioactivity. The “2′-C-methyl guanosine nucleotide levels” value [1, 4] was 14.58 pmol/million cells and 14.6 pmol/million cells, the “Major metabolites observed in cellular extracts (% of total radioactivity)” value [1, 4] was 19.9 % of total radioactivity and the “2′-C-methyl guanosine nucleotide levels” value [1, 5] was 6.85 pmol/million cells. For the same molecule, the “Major metabolites observed in cellular extracts (% of total radioactivity)” value [1, 5] was 26.6 % of total radioactivity, the “2′-C-methyl guanosine nucleotide levels” value ([1]; monkey hepatocytes Cy230, 10 μM [^14C]-Compound 1, 0 h) was 0 pmol/million cells and the “AUC … of Compound 7 levels” value ([1]; monkey hepatocytes Cy230, 10 μM [^14C]-Compound 1) was 13765 pmol * hr/million cells. The “2′-C-methyl guanosine nucleotide levels” value ([1]; monkey hepatocytes Cy230, 10 μM [^14C]-Compound 1, 1 h) was 180 pmol/million cells, the “2′-C-methyl guanosine nucleotide levels” value ([1]; monkey hepatocytes Cy230, 10 μM [^14C]-Compound 1, 8 h) was 895 pmol/million cells and the “2′-C-methyl guanosine nucleotide levels” value ([1]; monkey hepatocytes Cy230, 10 μM [^14C]-Compound 1, 24 h) was 344 pmol/million cells. For the same molecule, the “2′-C-methyl guanosine nucleotide levels” value ([1]; monkey hepatocytes Cy234, 10 μM [^14C]-2′-C-methyl guanosine, 0 h) was 0 pmol/million cells, the “AUC … of Compound 7 levels” value ([1]; monkey hepatocytes Cy234, 10 μM [^14C]-2′-C-methyl guanosine) was 956 pmol * hr/million cells and the “2′-C-methyl guanosine nucleotide levels” value [1, 6] was 4.00 pmol/million cells. For the same molecule, the “Major metabolites observed in cellular extracts (% of total radioactivity)” value [1, 6] was 8.70 % of total radioactivity, the “2′-C-methyl guanosine nucleotide levels” value [1, 7] was 29.0 pmol/million cells and the “Major metabolites observed in cellular extracts (% of total radioactivity)” value [1, 7] was 35.6 % of total radioactivity. The “2′-C-methyl guanosine nucleotide levels” value [1, 8] was 39.0 pmol/million cells, the “Major metabolites observed in cellular extracts (% of total radioactivity)” value [1, 8] was 43.0 % of total radioactivity and the “2′-C-methyl guanosine nucleotide levels” value [1, 9] was 57.0 pmol/million cells. The “Major metabolites observed in cellular extracts (% of total radioactivity)” value [1, 9] was 51.8 % of total radioactivity, the “2′-C-methyl guanosine nucleotide levels” value ([1]; monkey hepatocytes Cy234, 10 μM [^14C]-Compound 1, 0 h) was 0 pmol/million cells and the “AUC … of Compound 7 levels” value ([1]; monkey hepatocytes Cy234, 10 μM [^14C]-Compound 1) was 9861 pmol * hr/million cells. The “2′-C-methyl guanosine nucleotide levels” value ([1]; monkey hepatocytes Cy234, 10 μM [^14C]-Compound 1, 1 h) was 22.0 pmol/million cells, the “2′-C-methyl guanosine nucleotide levels” value ([1]; monkey hepatocytes Cy234, 10 μM [^14C]-Compound 1, 8 h) was 476 pmol/million cells and the “2′-C-methyl guanosine nucleotide levels” value ([1]; monkey hepatocytes Cy234, 10 μM [^14C]-Compound 1, 24 h) was 552 pmol/million cells. For the same molecule, the “Maximum Compound 7 levels” value ([1]; monkey hepatocytes, 10 μM [^14C]-2′-C-methyl guanosine, at 24 hours) was 32 pmol/million cells, the “Compound 7 AUC0-24h” value ([1]; monkey hepatocytes, 10 μM [^14C]-Compound 1) was 11,813 pmol*h/million cells and the “major intracellular metabolite, % of total intracellular radioactivity” value ([1]; monkey hepatocytes, 10 μM [^14C]-Compound 1, from 4-24 hours) was over 70%. The “Compound 7 peak levels” value ([1]; monkey hepatocytes, 10 μM [^14C]-Compound 1, at 8 hours in one donor and at 24 hours in the second) was 895 pmol/million cells and 552 pmol/million cells, the “metabolites observed in cellular extracts (% of total radioactivity)” value (rat primary hepatocytes; rat hepatocytes (Rs448, Rs458), 10 μM [^14C]-Compound 1, 1 h, listed as Compd 7) was 59.0% and 50.8% and the “metabolites observed in cellular extracts (% of total radioactivity)” value (rat primary hepatocytes; rat hepatocytes (Rs448, Rs458), 10 μM [^14C]-Compound 1, 4 h, listed as Compd 7) was 70.9% and 69.1%. For the same molecule, the “metabolites observed in cellular extracts (% of total radioactivity)” value (rat primary hepatocytes; rat hepatocytes (Rs448, Rs458), 10 μM [^14C]-Compound 1, 8 h, listed as Compd 7) was 73.0% and 72.5%, the “metabolites observed in cellular extracts (% of total radioactivity)” value (rat primary hepatocytes; rat hepatocytes (Rs448, Rs458), 10 μM [^14C]-Compound 1, 24 h, listed as Compd 7) was 66.2% and 54.5% and the “2′-C-methyl guanosine nucleotide levels” value (rat primary hepatocytes; [10]) was 80.0 pmol/million cells. The “metabolites observed in cellular extracts (% of total radioactivity)” value (rat primary hepatocytes; [10]) was 50.5%, the “2′-C-methyl guanosine nucleotide levels” value (rat primary hepatocytes; [11]) was 238 pmol/million cells and the “metabolites observed in cellular extracts (% of total radioactivity)” value (rat primary hepatocytes; [11]) was 77.6%. The “2′-C-methyl guanosine nucleotide levels” value (rat primary hepatocytes; rat hepatocytes (Rs458), 1 μM [^14C]-Compound 1, 24 h) was 103 pmol/million cells.

Reference: patent publication US20100003217A1, “Compounds and Pharmaceutical Compositions for the Treatment of Viral Infections” (priority 2008, published 2010)
